Common to all, as to assay: NCI anticancer screen, dose series, 48 h
The test system of experiment [1] is RXF 393 renal.
For experiment [2], the system named is NCI-H460 lung.
Experiment [3] concerns HOP-62 NSCLC.
The subject of experiment [4] is SF-295 CNS.
Experiment [5] relates to K-562 leukemia.
For experiment [6], the system named is 786-0 renal.
Experiment [7] deals with HCT-116 colon.
Experiment [8] relates to HOP-92 NSCLC.
Experiment [9] concerns SR leukemia.
Experiment [10] deals with TK-10 renal.

Values joined by “and” are separate entries in the source; they are usually repeats but may differ in a detail not shown here. Equal entries are not always repeated.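 Results reflect a 48-hour exposure of cells in 96-well plates to compound at five concentrations. GI50 marks 50% less growth. TGI denotes the concentration required for complete inhibition of growth.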

Regarding `COc1ccc(/C(=C/c2ccc3ccccc3c2)c2nn[nH]n2)cc1OC`, the GI50 in experiment [1] is 2.48 µM; in experiment [2] it was 2.81 µM; in experiment [3] it was 2.33 µM; in experiment [4], 1.51 µM; in experiment [5], 0.678 µM; in experiment [6], 5.72 µM. Further, the GI50 was 2.42 µM in experiment [7], 4.59 µM in experiment [8], 2.23 µM in experiment [9] and 18.5 µM in [10]. The TGI was 9.07 µM in [1]; 16.3 µM in [2]; over 100 µM in [3]; 51.1 µM in experiment [4]; over 100 µM in [5]; over 100 µM in experiment [6]. Besides, the TGI in experiment [7] was over 100 µM; in [8], 79.8 µM; in [9] it was over 100 µM; in experiment [10], over 100 µM.

For `Clc1ccc(-c2nc3c(-c4ccccc4)nc(-c4ccccc4)cn3c2-c2ccc(Cl)cc2)cc1`, the GI50 in experiment [1], in experiment [2], in [3], in experiment [4], in [5] and in experiment [6] was over 100 µM throughout. Moreover, the GI50 in experiment [7], in experiment [8], in experiment [9] and in [10] was over 100 µM throughout. Besides, the TGI in experiment [1], in [2], in experiment [3], in experiment [4], in [5] and in experiment [6] was over 100 µM each time. In addition, the TGI in [7], in experiment [8], in experiment [9] and in experiment [10] was over 100 µM throughout.

For `CC(C)(C)[Si](C)(C)OC1[C@@H](O[Si](C)(C)C(C)(C)C)[C@@H](CNC(=O)NC(=O)NC(=O)CCl)O[C@H]1n1cnc2c(NC(=O)Nc3ccccc3)ncnc21` (some centres undefined), the GI50 is 2.13 µM in experiment [1]; 2.23 µM in experiment [2]; 1.66 µM in [3]; 4.91 µM in [4]; 2.56 µM in experiment [5]; 1.3 µM in [6]. For the same compound, the GI50 in experiment [7] was 1.85 µM; in [8], 0.842 µM; in experiment [9] it was 0.226 µM; in experiment [10] it was 2.42 µM. The TGI in experiment [1] came to 6.88 µM; in experiment [2] it was 12.1 µM; in experiment [3], 4.8 µM; in experiment [4], 15 µM; in experiment [5], 7.51 µM; in [6] it was 4.76 µM. Moreover, the TGI in [7] worked out at 7.41 µM; in experiment [8], 1.98 µM; in [9], 0.81 µM; in experiment [10], 7.81 µM.

In the case of `O=C(COc1cccc(/C=C2\COc3ccccc3C2=O)c1)c1ccccc1`, the GI50 in experiment [1] is 2.48 µM; in experiment [2], 12.3 µM; in experiment [3], 5.24 µM; in [4] it was 1.93 µM; in [5], 2.05 µM; in experiment [6], 5.85 µM. Moreover, the GI50 in [7] was 2.12 µM; in [8], 2.94 µM; in experiment [9] it was 2.17 µM; in experiment [10], 3.6 µM. Besides, the TGI was found to be 9.29 µM in experiment [1]; 24.9 µM in [2]; 18.2 µM in [3]; 15.8 µM in experiment [4]; 5.65 µM in experiment [5]; 19 µM in experiment [6]. Besides, the TGI in experiment [7] worked out at 4.08 µM; in experiment [8], 16.8 µM; in experiment [9], 6.66 µM; in experiment [10], 11.2 µM.

In the case of `COC(=O)C(=NNc1ccccc1[N+](=O)[O-])C(=O)OC`, the TGI in experiment [1], in experiment [2], in experiment [3], in experiment [4], in experiment [5] and in [6] was over 100 µM each time. Also, the TGI in experiment [7], in experiment [8], in [9] and in experiment [10] was over 100 µM throughout.

`CN1C(c2ccccc2)CC(C)(O)CC1c1ccccc1` (centres undefined): the TGI in [1], in experiment [2], in experiment [3], in experiment [4], in experiment [5] and in experiment [6] was over 100 µM each time. Besides, the TGI in experiment [7], in experiment [8], in experiment [9] and in experiment [10] was over 100 µM throughout.

On to `NC(CP(=O)(O)O)C(=O)O` (centres undefined), for which the TGI in experiment [1], in experiment [2], in experiment [3], in [4], in [5] and in experiment [6] was over 100 µM throughout. Also, the TGI in experiment [7], in [8], in [9] and in [10] was over 100 µM in each case.

With `CCOC(=O)C1=C(C)NC(C)=C(C(=O)OCCNC(=O)c2ccc(N=[N+]=[N-])cc2)C1c1ccccc1C(F)(F)F` (centres undefined), the TGI was 21.5 µM in experiment [1]; 21.5 µM in experiment [2]; over 21.5 µM in experiment [3]; 21.5 µM in experiment [4]; 21.5 µM in experiment [5]; 21.5 µM in [6]. Further, the TGI amounted to 21.5 µM in experiment [7], 18.9 µM in experiment [8], 21.5 µM in experiment [9] and 31.1 µM in experiment [10].

As to `Cc1cc(I)cc(CNCCN2CCOCC2)c1O`, the GI50 in [1] was 48.5 µM; in experiment [2], 52.8 µM; in experiment [3] it was 29.4 µM; in experiment [4] it was 36 µM; in experiment [5], 87.5 µM; in experiment [6], 36.9 µM. Moreover, the GI50 is 37.2 µM in experiment [7], 59.8 µM in [8], 90.2 µM in experiment [9] and over 100 µM in experiment [10]. In addition, the TGI in experiment [1], in experiment [2], in [3], in experiment [4], in [5] and in experiment [6] was over 100 µM throughout. Further, the TGI in [7], in experiment [8], in [9] and in [10] was over 100 µM throughout.

On to `C[C@@H]1CC[C@H]2[C@@H](C)C(OC/C=C/COC3O[C@@H]4O[C@@]5(C)CC[C@H]6[C@H](C)CC[C@@H]([C@H]3C)[C@@]46OO5)O[C@@H]3O[C@@]4(C)CC[C@@H]1[C@]32OO4` (some centres undefined), for which the GI50 was under 0.01 µM in experiment [1]; under 0.01 µM in experiment [2]; 0.0791 µM in experiment [3]; under 0.0252 µM in experiment [4]; under 0.0201 µM in experiment [5]; 0.0168 µM in [6]. Besides, the GI50 in experiment [7] is under 0.01 µM; in experiment [8], under 0.0179 µM; in [9], under 0.01 µM; in [10], under 0.0104 µM. Moreover, the TGI in experiment [1] was 28.2 µM; in [2], over 41.4 µM; in [3], 34.2 µM; in [5], over 41.6 µM; in experiment [6] it was 18.6 µM; in [7] it was 13.9 µM. The TGI in experiment [8] was 45.4 µM; in experiment [9], 3.85 µM; in experiment [10], 24.8 µM.

With `CC(C)n1nc(C#Cc2cccc(O)c2)c2c(N)ncnc21`, the GI50 in [1] was 1.15 µM and 0.481 µM; in experiment [2], 1.34 µM and 1.13 µM; in experiment [3], 1.18 µM and 1.3 µM; in experiment [4], 3.16 µM and 1.17 µM; in [5] it was 0.0636 µM and 0.0283 µM; in [6] it was 4.7 µM and 3.37 µM. Moreover, the GI50 in experiment [7] is 1.17 µM and 0.586 µM; in experiment [8], 0.489 µM and 0.187 µM; in [9], 1.17 µM and 0.573 µM; in [10] it was 2.57 µM and 2.03 µM. The TGI in [1] is 4.2 µM and 1.5 µM; in [2], 9.9 µM and 13.1 µM; in experiment [3], 4.31 µM and 5 µM; in [4] it was 12.2 µM and 3.58 µM; in experiment [5], 50 µM and > 100 µM; in [6], 15.3 µM and 11.7 µM. Moreover, the TGI was 7.78 µM and 10.8 µM in experiment [7]; 2.35 µM and 0.774 µM in [8]; 23.4 µM and 11.4 µM in experiment [9]; 10.1 µM and 5.05 µM in experiment [10].

With `COc1cc(-c2cc(-c3cccs3)c(C#N)c(N3CCOCC3)n2)cc(OC)c1OC`, the GI50 in experiment [1] is 3.47 µM; in experiment [2], 3.06 µM; in experiment [3] it was over 58.7 µM; in [4] it was 2.87 µM; in [5], 3.8 µM; in experiment [6], 1.82 µM. Further, the GI50 in [7] was 4.14 µM; in experiment [8], 4.73 µM; in experiment [9], 1.93 µM; in experiment [10], over 39 µM. The TGI was over 62.8 µM in experiment [1]; over 28.5 µM in experiment [2]; over 100 µM in experiment [3]; 9.01 µM in experiment [4]; over 100 µM in experiment [5]; 7.94 µM in experiment [6]. Further, the TGI is over 100 µM in experiment [7], over 100 µM in experiment [8], 8.11 µM in [9] and over 94.1 µM in [10].

Turning to `N#CCCN(C1=NN(C(=O)CC(=O)Nc2ccc(Cl)cc2)C(c2ccccc2)C1)c1ccc(Cl)cc1` (centres undefined), the TGI in experiment [1], in [2], in [3], in experiment [4], in [5] and in experiment [6] was over 100 µM in each case. Also, the TGI in experiment [7], in experiment [8], in experiment [9] and in experiment [10] was over 100 µM each time.

Take `COc1ccc(C2CC(c3ccccc3)=NN2C(=O)c2cc(OC)c(OC)c(OC)c2)cc1O` (centres undefined): the GI50 is 0.317 µM in experiment [1]; 0.354 µM in experiment [2]; 0.397 µM in [3]; 0.366 µM in experiment [4]; 0.297 µM in experiment [5]; 0.301 µM in experiment [6]. The GI50 in [7] was 0.313 µM; in [8] it was 1.72 µM; in [9], 0.302 µM; in [10] it was 14.7 µM. In addition, the TGI is 0.84 µM in experiment [1]; 12.6 µM in experiment [2]; 5.21 µM in experiment [3]; over 38.5 µM in experiment [4]; 27.1 µM in [5]; 3.86 µM in [6]. In addition, the TGI was 3.05 µM in experiment [7], 33.2 µM in experiment [8], 5.85 µM in [9] and over 100 µM in [10].

For `CC(=O)n1nnc2ccc([N+](=O)[O-])cc21`, the TGI in experiment [1], in experiment [2], in experiment [3], in experiment [4], in experiment [5] and in [6] was over 100 µM throughout. Moreover, the TGI in experiment [7], in experiment [8], in experiment [9] and in experiment [10] was over 100 µM in each case.

For the compound `O=c1c2cccc(F)c2sc2c(NCCCNCCO)nc3ccccc3c12`, the GI50 in experiment [1] was 1.37 µM; in [2], 0.653 µM; in [3], 1.54 µM; in experiment [4], 1.76 µM; in [5] it was 1.75 µM; in experiment [6], 1.44 µM. In addition, the GI50 in [7] is 1.39 µM; in [8], 1.42 µM; in [9], 0.984 µM; in experiment [10] it was 1.96 µM. For the same compound, the TGI in experiment [1] is 2.73 µM; in [2], 1.95 µM; in [3] it was 3.59 µM; in experiment [4] it was 3.19 µM; in experiment [5] it was 4.64 µM; in [6], 2.84 µM. The TGI in experiment [7] is 2.78 µM; in [8], 5.15 µM; in experiment [9], 4.85 µM; in experiment [10], 3.57 µM.

`O=CC1CCC=CC1NC(=O)OCc1ccccc1` (centres undefined): the TGI in experiment [1], in [2], in experiment [3], in experiment [4], in experiment [5] and in experiment [6] was over 100 µM in each case. Besides, the TGI in experiment [7], in experiment [8], in experiment [9] and in experiment [10] was over 100 µM throughout.

On to `Cn1cnc([N+](=O)[O-])c1Sc1nc2ccccc2o1`, for which the TGI was 22.1 µM in [1]; over 71.6 µM in [2]; over 94.4 µM in [3]; 74.9 µM in [4]; 11.3 µM in [5]; 29.3 µM in experiment [6]. Further, the TGI in experiment [7] turned out to be 11.6 µM; in experiment [8] it was 12.4 µM; in experiment [9] it was 8.14 µM; in [10], 22.9 µM.
